Measurements taken from US20140357579A1, “SYNTHETIC PEPTIDE AMIDES AND DIMERS THEREOF” (priority 2006, published 2014).
Read-outs that look alike come from different tables or passages of the source. Square brackets hold non-standard residues; d marks the D form. Side chains are listed from the residue outwards. Peptide text beside a SMILES is read from it. dOrn = NCCC[C@@H](N)C(=O)O

Assays:
Type in all cases: cell-based
[1] = molecular target: T1, mouse kappa opioid receptor (mKOR) (Mus musculus, UniProt P33534); test: Inhibition of forskolin-stimulated cAMP production in R1.G1 cells (TR-FRET cAMP immunoassay); settings: for EC50: inhibition of forskolin-stimulated cAMP
T1 construct: a mouse thymoma cell line that expresses only the kappa-opioid receptor and no other opioid receptor subtype; host or cells: R1.G1 mouse thymoma cells
T1 sequence (P33534 whole entry): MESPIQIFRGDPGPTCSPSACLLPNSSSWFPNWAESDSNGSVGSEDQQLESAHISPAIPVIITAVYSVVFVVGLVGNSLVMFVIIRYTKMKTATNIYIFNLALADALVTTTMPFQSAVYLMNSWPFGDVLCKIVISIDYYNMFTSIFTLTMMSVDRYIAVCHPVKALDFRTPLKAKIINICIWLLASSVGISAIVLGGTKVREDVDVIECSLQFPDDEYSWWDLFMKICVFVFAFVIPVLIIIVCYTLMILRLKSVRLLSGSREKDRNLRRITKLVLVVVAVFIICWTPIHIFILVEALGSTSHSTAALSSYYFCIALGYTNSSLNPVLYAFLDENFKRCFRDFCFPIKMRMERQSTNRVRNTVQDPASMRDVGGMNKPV

[2] = molecular target: T2, human kappa opioid receptor (hKOR) (Homo sapiens, UniProt P41145); test: NFAT-luciferase reporter assay in HEK-293 cells transfected with human kappa opioid receptor and chimeric G-protein; settings: for EC50: transfected HEK-293 cells, luciferase reporter
T2 construct: expressed in transfected cells; host or cells: HEK-293 cells (ATCC), transient transfection with pcDNA3-hOPRK1
T2 sequence (P41145 whole entry): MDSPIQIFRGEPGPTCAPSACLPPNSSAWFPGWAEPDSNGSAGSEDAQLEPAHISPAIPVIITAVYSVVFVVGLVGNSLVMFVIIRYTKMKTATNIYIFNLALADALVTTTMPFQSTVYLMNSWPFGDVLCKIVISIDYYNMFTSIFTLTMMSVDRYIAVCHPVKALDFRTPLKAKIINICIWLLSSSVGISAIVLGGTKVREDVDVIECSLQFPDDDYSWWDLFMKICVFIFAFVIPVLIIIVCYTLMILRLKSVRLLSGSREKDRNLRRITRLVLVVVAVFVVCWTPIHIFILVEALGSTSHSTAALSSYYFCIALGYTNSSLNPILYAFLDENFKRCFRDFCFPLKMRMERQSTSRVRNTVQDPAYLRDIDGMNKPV

human mu opioid receptor = human mu opioid receptor (Homo sapiens, UniProt P35372); test: Similar assay for potency on the human mu opioid receptor
Chain of human mu opioid receptor (P35372 whole entry): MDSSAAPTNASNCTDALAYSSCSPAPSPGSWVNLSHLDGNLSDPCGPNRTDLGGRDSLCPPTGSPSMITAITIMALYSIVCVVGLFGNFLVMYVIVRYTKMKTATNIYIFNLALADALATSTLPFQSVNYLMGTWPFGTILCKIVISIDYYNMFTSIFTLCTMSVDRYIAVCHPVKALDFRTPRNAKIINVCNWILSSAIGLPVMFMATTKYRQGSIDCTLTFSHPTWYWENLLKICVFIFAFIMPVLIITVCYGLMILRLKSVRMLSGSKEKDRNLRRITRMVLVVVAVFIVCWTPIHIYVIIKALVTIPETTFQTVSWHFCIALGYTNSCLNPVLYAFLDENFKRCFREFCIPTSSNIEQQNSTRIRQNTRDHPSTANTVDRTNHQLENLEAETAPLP
Method: Synthetic peptide amides of the invention were tested in a similar assay for potency on the human mu opioid receptor.
The synthetic peptide amide (53) was tested in a similar assay for potency on the human mu opioid receptor.

[3] = HEK293, percent maximal activation compared to full induction by known kappa agonists, read-out: hKOR Efficacy(%)
[4] = percent maximal activation compared to full induction by known kappa agonists
[5] = R1.G1 cells, read-out: mKOR Efficacy(%)
[6] = read-out: mKOR Efficacy(%), R1.G1 cells
[7] = HEK293, read-out: hKOR Efficacy(%), percent maximal activation compared to full induction by known kappa agonists
[8] = R1.G1 cells, read-out: mKOR EC50

SMILES | mKOR Efficacy(%) ([1]; R1.G1 cells) | Emax [2, 3] [%] | hKOR Efficacy(%) [2, 4] [%] | also measured
CCN1CCCN(C(=O)[C@@H](CCCN)NC(=O)[C@@H](CC(C)C)NC(=O)[C@@H](Cc2ccccc2)NC(=O)[C@H](N)Cc2ccccc2)CC1 [Compound 18, D-Phe-D-Phe-D-Leu-D-Orn-[4-ethylhomopiperazine amide]] | 99 | 99 | – | –
CNC(=N)N1CCCN(C(=O)[C@@H](CCCN)NC(=O)[C@@H](CC(C)C)NC(=O)[C@@H](Cc2ccccc2)NC(=O)[C@H](N)Cc2ccccc2)CC1 [Compound 19, D-Phe-D-Phe-D-Leu-D-Orn-[4-(N-methyl)amidinohomopiperazine amide]] | 101 | 93 | – | EC50 ([2]; read-out: hKOR EC50): 0.21 nM
CC(C)C[C@@H](NC(=O)[C@@H](Cc1ccccc1)NC(=O)[C@H](N)Cc1ccccc1)C(=O)N[C@H](CCCNC(C)C)C(=O)N1CCC(N)(C(=O)O)CC1 [Compound 20, D-Phe-D-Phe-D-Leu-(δ-iPr)D-Orn-[omega(4-Aminopiperidine-4-carboxylic acid)]-OH] | 92 | 97 | – | EC50 ([2]; read-out: hKOR EC50): 0.15 nM
CC(C)C[C@@H](NC(=O)[C@@H](Cc1ccccc1)NC(=O)[C@H](N)Cc1ccccc1)C(=O)N[C@H](CCCCN)C(=O)NCC1OCCO1 [Compound 25] | 85 | – | 98 | –
CC(C)C[C@@H](NC(=O)[C@@H](Cc1ccccc1)NC(=O)[C@H](N)Cc1ccccc1)C(=O)N[C@H](CCCCN)C(=O)N1CCN(c2ncccn2)CC1 [Compound 26, D-Phe-D-Phe-D-Leu-D-Lys-[2-(piperazin-1-yl)pyrimidine amide]] | 78 | – | 98 | –
CC(C)C[C@@H](NC(=O)[C@@H](Cc1ccccc1)NC(=O)[C@H](N)Cc1ccccc1)C(=O)N[C@H](CCCCN)C(=O)N1CCN(c2cnccn2)CC1 [Compound 27, D-Phe-D-Phe-D-Leu-D-Lys-[2-(piperazin-1-yl)pyrazine amide]] | 85 | – | 100 | –
CC(C)C[C@@H](NC(=O)[C@@H](Cc1ccccc1)NC(=O)[C@H](N)Cc1ccccc1)C(=O)N[C@H](CCCCN)C(=O)N1CCN(c2ccccn2)CC1 [Compound 28, D-Phe-D-Phe-D-Leu-D-Lys-[1-(pyridin-2-yl)piperazine amide]] | 89 | – | 100 | –
CC(C)C[C@@H](NC(=O)[C@@H](Cc1ccccc1)NC(=O)[C@H](N)Cc1ccccc1)C(=O)N[C@H](CCCCN)C(=O)N1CCN(c2nccs2)CC1 [Compound 29, D-Phe-D-Phe-D-Leu-D-Lys-[2-(piperazin-1-yl)thiazole amide]] | 85 | – | 92 | –
CC(C)C[C@@H](NC(=O)[C@@H](Cc1ccccc1)NC(=O)[C@H](N)Cc1ccccc1)C(=O)N[C@H](CCCCN)C(=O)N1CCN(S(=O)(=O)N(C)C)CC1 [Compound 30, D-Phe-D-Phe-D-Leu-D-Lys-[N,N-dimethylpiperazine-1-sulfonamide amide]] | 86 | – | 101 | –
CC(C)C[C@@H](NC(=O)[C@@H](Cc1ccccc1)NC(=O)[C@H](N)Cc1ccccc1)C(=O)N[C@H](CCCCN)C(=O)N1CCN(S(C)(=O)=O)CC1 [Compound 31, D-Phe-D-Phe-D-Leu-D-Lys-[1-(methylsulfonyl)piperazine amide]] | 82 | – | 100 | –
CC(C)C[C@@H](NC(=O)[C@@H](Cc1ccccc1)NC(=O)[C@H](N)Cc1ccccc1)C(=O)N[C@H](CCCCN)C(=O)N1CCN(S(=O)(=O)c2ccccc2)CC1 [Compound 32, D-Phe-D-Phe-D-Leu-D-Lys-[1-(phenylsulfonyl)piperazine amide]] | 87 | – | 101 | –
CC(C)C[C@@H](NC(=O)[C@@H](Cc1ccccc1)NC(=O)[C@H](N)Cc1ccccc1)C(=O)N[C@H](CCCCN)C(=O)N1CCN(C(=O)c2ccccc2)CC1 [Compound 33, D-Phe-D-Phe-D-Leu-D-Lys-[phenyl(piperazin-1-yl)methanone amide]] | 92 | – | 94 | –
CC(C)C[C@@H](NC(=O)[C@@H](Cc1ccccc1)NC(=O)[C@H](N)Cc1ccccc1)C(=O)N[C@H](CCCCN)C(=O)N1CCS(=O)(=O)CC1 [Compound 34, D-Phe-D-Phe-D-Leu-D-Lys-[thiolmorpholine-1,1-dioxide amide]] | 89 | – | 103 | –
CC(C)C[C@@H](NC(=O)[C@@H](Cc1ccccc1)NC(=O)[C@H](N)Cc1ccccc1)C(=O)N[C@H](CCCCN)C(=O)NCc1ccc(C(F)(F)F)nc1 [Compound 35, D-Phe-D-Phe-D-Leu-D-Lys-[6-trifluoromethyl-3-aminomethylpyridine amide]] | 85 | – | 95 | –
CC(C)C[C@@H](NC(=O)[C@@H](Cc1ccccc1)NC(=O)[C@H](N)Cc1ccccc1)C(=O)N[C@H](CCCCN)C(=O)NCc1ccc2[nH]c(=O)[nH]c2c1 [Compound 37, D-Phe-D-Phe-D-Leu-D-Lys-[5-(aminomethyl)-1H-benzo[d]imidazol-2(3H)-one amide]] | 87 | – | 99 | –
Cc1cnc(CNC(=O)[C@@H](CCCCN)NC(=O)[C@@H](CC(C)C)NC(=O)[C@@H](Cc2ccccc2)NC(=O)[C@H](N)Cc2ccccc2)cn1 [Compound 38] | – | 100 | – | Emax [1, 5]: 87%
CC(C)C[C@@H](NC(=O)[C@H](N)Cc1ccccc1)C(=O)N[C@H](CCCN)C(=O)N[C@@H](CCCCNC(=O)[C@@H](CCCN)NC(=O)[C@@H](CC(C)C)NC(=O)[C@@H](Cc1ccccc1)NC(=O)[C@H](N)Cc1ccccc1)C(=O)O [Compound 40] | – | – | – | Emax [1, 6]: 96%; Emax [2, 7]: 83%; EC50 ([2]; hKOR EC50 (nM)): 0.26 nM
CC(C)C[C@@H](NC(=O)[C@H](N)Cc1ccccc1)C(=O)N[C@H](CCCN)C(=O)N[C@@H](CCCCNC(=O)[C@@H](CCCN)NC(=O)[C@@H](CC(C)C)NC(=O)[C@@H](Cc1ccccc1)NC(=O)[C@H](N)Cc1ccccc1)C(=O)O [Compound 41] | 100 | – | 89 | EC50 ([2]; hKOR EC50 (nM)): 0.2 nM
CC(C)C[C@@H](NC(=O)[C@@H](Cc1ccccc1)NC(=O)[C@H](N)Cc1ccccc1)C(=O)N[C@H](CCCN)C(=O)NCCCC[C@H](NC(=O)[C@H](N)CCCN)C(=O)O [Compound 42] | – | 95 | – | EC50 [1, 8]: 0.24 nM; Emax [1, 5]: 97%; EC50 ([2]; read-out: hKOR EC50): 0.27 nM
CC(C)C[C@@H](NC(=O)[C@@H](Cc1ccccc1)NC(=O)[C@H](N)Cc1ccccc1)C(=O)N[C@H](CCCN)C(=O)NCCCC[C@H](NC(=O)[C@@H](CCCN)NC(=O)[C@@H](CC(C)C)NC(=O)[C@@H](Cc1ccccc1)NC(=O)[C@H](N)Cc1ccccc1)C(N)=O [Compound 43] (H-[dF][dF][dL][dOrn]K([dOrn-dL-dF-dF])-NH2) | – | – | – | EC50 ([1]; mKOR EC50 (nM), R1.G1 cells): 0.08 nM; Emax [1, 6]: 101%; Emax [2, 7]: 94%; EC50 ([2]; hKOR EC50 (nM)): 0.13 nM
CC(C)C[C@@H](NC(=O)[C@@H](Cc1ccccc1)NC(=O)[C@H](N)Cc1ccccc1)C(=O)N[C@H](CCCN)C(=O)NCCCC[C@H](NC(=O)[C@H](N)CCCN)C(=O)N1CCNCC1 [Compound 44] | – | 93 | – | EC50 [1, 8]: 1.3 nM; Emax [1, 5]: 91%; EC50 ([2]; read-out: hKOR EC50): 0.25 nM
CC(C)C[C@@H](NC(=O)[C@@H](Cc1ccccc1)NC(=O)[C@H](N)Cc1ccccc1)C(=O)N[C@H](CCCN)C(=O)NCCCC[C@@H](NC(=O)[C@H](N)CCCN)C(=O)O [Compound 45] | – | 96 | – | EC50 [1, 8]: 0.05 nM; Emax [1, 5]: 96%; EC50 ([2]; read-out: hKOR EC50): 0.28 nM
CC(C)C[C@@H](NC(=O)[C@@H](Cc1ccccc1)NC(=O)[C@H](N)Cc1ccccc1)C(=O)N[C@H](CCCN)C(=O)N1CCOC(C(=O)O)C1 (stereo partly drawn) [Compound 53, D-Phe-D-Phe-D-Leu-D-Orn-[R/S-2-carboxymorpholine]-OH] | 100 | – | 100 | EC50 (human mu opioid receptor): ≥ 1000 nM
